# Data: US9364476B2, “Methods of treating a Bruton's Tyrosine Kinase disease or disorder” (Celgene Avilomics Research, Inc., priority 2011, dated 2016)
# Where “and” joins values, the source holds several entries; their conditions need not be identical. Identical values can stand only once.
# Assays:
# Format in all cases: in vivo, human
# [1] = tested on: Relapsed and/or refractory CLL/SLL; assay: CLL expansion cohort C: disease response
# Procedure: After completion of observation for DLTs in Example 1, the accumulated safety, PK, and PD data from Example 1 were evaluated to select a preliminary recommended Phase 2 dose for administration to additional subjects enrolled into an independent and non-randomized diagnosis-specific expansion cohorts in the Diagnosis Specific Expansion Cohorts study. • Cohort A: Relapsed and/or refractory diffuse large B-cell lymphoma (DLBCL); • Cohort B: Relapsed and/or refractory indolent and mantle B-cell lymphomas, Waldenstrom's macroglobulinemia, and other B lymphoproliferative disorders of uncertain malignant potential (at least 10 of the 24 enrollment slots will be reserved for subjects with mantle cell lymphoma); and • Cohort C: Relapsed and/or refractory CLL/SLL.
# 24 subjects were enrolled into the CLL expansion cohort C and were assessed for safety, tolerability, DLT, PK, PD and disease response. Each subject was evaluated prior to enrollment to ensure that minimum hematological criteria were satisfied: […]
# [2] = Plasma API levels by LC-MS-MS (PK)
# Procedure: Plasma API levels were assessed by LC-MS-MS.
# [3] = tested on: relapsed or refractory B-NHL, CLL/SLL, or WM; assay: Dose escalation study: disease progression and treatment duration
# Procedure: Intrapatient dose escalation was allowed.
# Subjects with CLL experiencing nodal response with lymphocytosis (which may be related to drug-mediated lymphocyte redistribution) were also eligible for additional treatment. Subjects with WM with increasing serum Immunoglobulin M (“IgM”) levels at the end of the first 28-day cycle were also evaluated for lymphadenopathy/organomegaly and marrow infiltration. Investigators were permitted to use judgment in determining whether to continue these subjects into the second 28-day cycle if there was a discordant response between increased IgM and stable or decreased lymphadenopathy/organomegaly and marrow infiltration.
# [4] = eleven patients from Expansion Cohort C, 750 mg QD
compound,measurement,setting,value
C=CC(=O)Nc1cccc(Nc2nc(Nc3ccc(OCCOC)cc3)ncc2F)c1.O=S(=O)(O)c1ccccc1 [N-(3-(5-fluoro-2-(4-(2-methoxyethoxy)phenylamino)pyrimidin-4-ylamino)phenyl)acrylamide besylate],progressive disease after,"[1]; cohort C, 750 mg po QD, one patient",73 days
same,patients showing no disease progression,"[1]; cohort C, 24 subjects, 750 mg po QD",twenty-three
same,CLL patients with between 25 and 50% reduction of lymph node size,[1]; [4],6/11
same,CLL patients with nodal response (>50% reduction of lymph node size),[1]; [4],1/11
same,CLL patients with early increases (≧25%) in absolute lymphocyte counts (ALC),"[1]; of eighteen (18) patients in Expansion Cohort C, 750 mg QD, first 28-day cycle",17 patients
same,PK exposure (AUClast),"[2]; Day 1 to 15, once daily oral dosing",linear with no accumulation
same,PK,[2]; once daily oral dosing,predictable with no accumulation
same,DLT or disease progression,"[3]; cohort 1 (125 mg), three CLL subjects",None of the subjects showed DLT or disease progression
same,progressive disease after,"[3]; cohort 1 (starting 125 mg QD), three CLL patients, one value per patient, listed as API, besylate",187 days and 319 days and 332 days
same,progressive disease after,"[3]; cohort 2 (250 mg QD), DLBCL subject",28 days
same,subjects showing no DLT or disease progression,"[3]; cohort 2 (250 mg), three subjects",Two of the three
same,progressive disease after,"[3]; cohort 3 (400 mg QD), two CLL patients, one value per patient, listed as API, besylate",168 days and 231 days
same,patients showing no DLT or disease progression,"[3]; cohort 3 (400 mg), six subjects, one MZL, two CLL",Three
same,progressive disease after,"[3]; cohort 4 (625 mg QD), DLBCL patient",33 days
same,progressive disease after,"[3]; cohort 4 (625 mg QD), mantle cell lymphoma patient",105 days
same,progressive disease after,"[3]; cohort 4 (625 mg QD), two follicular lymphoma patients, one value per patient, listed as API, besylate",56 days and 212 days
same,patients showing no DLT or disease progression,"[3]; cohort 4 (625 mg), six subjects, follicular lymphoma",One
same,progressive disease after,"[3]; cohort 5 (750 mg QD), MLBCL patient",64 days
same,patients showing no DLT or disease progression,"[3]; cohort 5 (750 mg), six subjects",Five
same,patients showing no DLT or disease progression,"[3]; cohorts 6A and 6B (1000 mg QD / 375 mg BID), twelve subjects, as of Sep. 11, 2012",eleven
